How the values were obtained:
Test in all cases: NCI one-dose SRB anti-proliferative screen
Assay type in all cases: cell-based
786-0 = conditions: Homo sapiens; 786-0 (Renal Cancer), NCI one dose 10 µM; read-out: Cell growth inhibition %
Procedure, shortened: (§1)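 Using a fixed 10 µM dose, anti-proliferative activity is measured through sulforhodamine B binding, read colorimetrically, in one of sixty human tumour lines.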

A498 = conditions: Homo sapiens; A498 (Renal Cancer), NCI one dose 10 µM; read-out: Cell growth inhibition %
Procedure, shortened: as §1

ACHN = conditions: Homo sapiens; ACHN (Renal Cancer), NCI one dose 10 µM; read-out: Cell growth inhibition %
Procedure, shortened: as §1

BT-549 = conditions: Homo sapiens; BT-549 (Breast Cancer), NCI one dose 10 µM; read-out: Cell growth inhibition %
Procedure, shortened: as §1

CAKI-1 = conditions: Homo sapiens; CAKI-1 (Renal Cancer), NCI one dose 10 µM; read-out: Cell growth inhibition %
Procedure, shortened: as §1

DU-145 = conditions: Homo sapiens; DU-145 (Prostate Cancer), NCI one dose 10 µM; read-out: Cell growth inhibition %
Procedure, shortened: as §1

HL-60(TB) = conditions: Homo sapiens; HL-60(TB) (Leukemia), NCI one dose 10 µM; read-out: Cell growth inhibition %
Procedure, shortened: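 Activity reflects a single-point exposure at 10 µM, with cell mass determined by a sulforhodamine B dye assay.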

HOP-92 = conditions: Homo sapiens; HOP-92 (Non-Small Cell Lung Cancer), NCI one dose 10 µM; read-out: Cell growth inhibition %
Procedure, shortened: as §1

HS 578T = conditions: Homo sapiens; HS 578T (Breast Cancer), NCI one dose 10 µM; read-out: Cell growth inhibition %
Procedure, shortened: as §1

HT29 = conditions: Homo sapiens, HT-29; HT29 (Colon Cancer), NCI one dose 10 µM; read-out: Cell growth inhibition %
Procedure, shortened: as §1

IGROV1 = conditions: Homo sapiens, IGROV-1; IGROV1 (Ovarian Cancer), NCI one dose 10 µM; read-out: Cell growth inhibition %
Procedure, shortened: as §1

KM12 = conditions: Homo sapiens; KM12 (Colon Cancer), NCI one dose 10 µM; read-out: Cell growth inhibition %
Procedure, shortened: as §1

LOX IMVI = conditions: Homo sapiens, LOX IMIV (Melanoma), NCI one dose 10 µM, read-out: Cell growth inhibition %
Procedure, shortened: as §1

MCF7 = conditions: Homo sapiens; MCF7 (Breast Cancer), NCI one dose 10 µM; read-out: Cell growth inhibition %
Procedure, shortened: as §1

MDA-MB-231/ATCC = conditions: Homo sapiens; MDA-MB-231/ATCC (Breast Cancer), NCI one dose 10 µM; read-out: Cell growth inhibition %
Procedure, shortened: as §1

MDA-MB-435 = conditions: Homo sapiens; MDA-MB-435 (Melanoma), NCI one dose 10 µM; read-out: Cell growth inhibition %
Procedure, shortened: as §1

MDA-MB-468 = conditions: Homo sapiens; MDA-MB-468 (Breast Cancer), NCI one dose 10 µM; read-out: Cell growth inhibition %
Procedure, shortened: as §1

NCI-H460 = conditions: Homo sapiens; NCI-H460 (Non-Small Cell Lung Cancer), NCI one dose 10 µM; read-out: Cell growth inhibition %
Procedure, shortened: as §1

NCI/ADR-RES = conditions: Homo sapiens; NCI/ADR-RES (Ovarian Cancer), NCI one dose 10 µM; read-out: Cell growth inhibition %
Procedure, shortened: as §1

OVCAR-3 = conditions: Homo sapiens; OVCAR-3 (Ovarian Cancer), NCI one dose 10 µM; read-out: Cell growth inhibition %
Procedure, shortened: as §1

OVCAR-5 = conditions: Homo sapiens; OVCAR-5 (Ovarian Cancer), NCI one dose 10 µM; read-out: Cell growth inhibition %
Procedure, shortened: as §1

OVCAR-8 = conditions: Homo sapiens; OVCAR-8 (Ovarian Cancer), NCI one dose 10 µM; read-out: Cell growth inhibition %
Procedure, shortened: as §1

PC-3 = conditions: Homo sapiens; PC-3 (Prostate Cancer), NCI one dose 10 µM; read-out: Cell growth inhibition %
Procedure, shortened: as §1

RPMI-8226 = conditions: Homo sapiens; RPMI-8226 (Leukemia), NCI one dose 10 µM; read-out: Cell growth inhibition %
Procedure, shortened: as §1

SF-268 = conditions: Homo sapiens; SF-268 (CNS Cancer), NCI one dose 10 µM; read-out: Cell growth inhibition %
Procedure, shortened: as §1

SF-539 = conditions: Homo sapiens; SF-539 (CNS Cancer), NCI one dose 10 µM; read-out: Cell growth inhibition %
Procedure, shortened: as §1

SK-MEL-28 = conditions: Homo sapiens; SK-MEL-28 (Melanoma), NCI one dose 10 µM; read-out: Cell growth inhibition %
Procedure, shortened: as §1

SK-MEL-2 = conditions: Homo sapiens; SK-MEL-2 (Melanoma), NCI one dose 10 µM; read-out: Cell growth inhibition %
Procedure, shortened: as §1

SR = conditions: Homo sapiens; SR (Leukemia), NCI one dose 10 µM; read-out: Cell growth inhibition %
Procedure, shortened: as §1

SW-620 = conditions: Homo sapiens; SW-620 (Colon Cancer), NCI one dose 10 µM; read-out: Cell growth inhibition %
Procedure, shortened: as §1

TK-10 = conditions: Homo sapiens; TK-10 (Renal Cancer), NCI one dose 10 µM; read-out: Cell growth inhibition %
Procedure, shortened: as §1

UO-31 = conditions: Homo sapiens; UO-31 (Renal Cancer), NCI one dose 10 µM; read-out: Cell growth inhibition %
Procedure, shortened: as §1

Structure (SMILES)	inhibition at 10 µM (786-0)	inhibition at 10 µM (A498)	inhibition at 10 µM (ACHN)	inhibition at 10 µM (BT-549)	inhibition at 10 µM (CAKI-1)	inhibition at 10 µM (DU-145)	inhibition at 10 µM (HL-60(TB))	inhibition at 10 µM (HOP-92)	inhibition at 10 µM (HS 578T)	inhibition at 10 µM (HT29)	inhibition at 10 µM (IGROV1)	inhibition at 10 µM (KM12)	inhibition at 10 µM (LOX IMVI)	inhibition at 10 µM (MCF7)	inhibition at 10 µM (MDA-MB-231/ATCC)	inhibition at 10 µM (MDA-MB-435)	inhibition at 10 µM (MDA-MB-468)	inhibition at 10 µM (NCI-H460)	inhibition at 10 µM (NCI/ADR-RES)	inhibition at 10 µM (OVCAR-3)	also measured
COc1ccc(-c2nc3cc(-c4nnc(SCC(=O)Nc5ccc(C(=O)/C=C/c6ccccc6)cc5)o4)ccc3[nH]2)cc1OC [Compound 7p, 2-{5-[2-(3,4-Dimethoxyphenyl)-1 H-benzo[d]imidazol-5-yl]-1,3,4-oxadiazol-2-ylthio}-N-{4-[(E)-3-phenylacryloyl]phenyl}acetamide]	0.75%	0%	3.66%	5.86%	2.96%	0%	0%	1.64%	3.94%	0%	3.63%	0.98%	112%	21.7%	8.78%	0%	0%	0%	0%	0%	inhibition at 10 µM (OVCAR-5): 0.55%; inhibition at 10 µM (OVCAR-8): 0%; inhibition at 10 µM (PC-3): 0%; inhibition at 10 µM (RPMI-8226): 36%; inhibition at 10 µM (SF-268): 0%; inhibition at 10 µM (SF-539): 16.4%; inhibition at 10 µM (SK-MEL-28): 0%; inhibition at 10 µM (SK-MEL-2): 0%; inhibition at 10 µM (SR): 16.4%; inhibition at 10 µM (SW-620): 0%; inhibition at 10 µM (TK-10): 0%; inhibition at 10 µM (UO-31): 11.5%
COc1ccc(-c2nc3cc(-c4nnc(SCC(=O)Nc5ccc(C(=O)/C=C/c6ccc(Cl)cc6)cc5)o4)ccc3[nH]2)cc1OC [Compound 7q, 2-{5-[2-(3,4-Dimethoxyphenyl)-1 H-benzo[d]imidazol-5-yl]-1,3,4-oxadiazol-2-ylthio}-N-{4-[(E)-3-(4-chlorophenyl)acryloyl]phenyl}acetamide]	0%	0%	5.74%	0%	0%	0%	11.3%	0%	3.98%	0%	8.1%	0%	96.8%	24.1%	4.84%	0%	0%	0%	0%	0%	inhibition at 10 µM (OVCAR-5): 4.8%; inhibition at 10 µM (OVCAR-8): 0%; inhibition at 10 µM (PC-3): 2.29%; inhibition at 10 µM (RPMI-8226): 24.5%; inhibition at 10 µM (SF-268): 0%; inhibition at 10 µM (SF-539): 16.2%; inhibition at 10 µM (SK-MEL-28): 0%; inhibition at 10 µM (SK-MEL-2): 0%; inhibition at 10 µM (SR): 27%; inhibition at 10 µM (SW-620): 0%; inhibition at 10 µM (TK-10): 0%; inhibition at 10 µM (UO-31): 13%
COc1ccc(/C=C/C(=O)c2ccc(NC(=O)CSc3nnc(-c4ccc5[nH]c(-c6ccc(OC)c(OC)c6)nc5c4)o3)cc2)cc1 [Compound 7r, 2-{5-[2-(3,4-Dimethoxyphenyl)-1 H-benzo[d]imidazol-5-yl]-1,3,4-oxadiazol-2-ylthio}-N-{4-[(E)-3-(4-methoxyphenyl)acryloyl]phenyl}acetamide]	0%	0%	2.15%	5.47%	0.08%	0%	20.9%	5.88%	13.2%	0%	2.07%	0%	20.2%	24.7%	4.13%	0%	0%	0%	0%	0%	inhibition at 10 µM (OVCAR-5): 0%; inhibition at 10 µM (OVCAR-8): 11.1%; inhibition at 10 µM (PC-3): 7.58%; inhibition at 10 µM (RPMI-8226): 14.7%; inhibition at 10 µM (SF-268): 0%; inhibition at 10 µM (SF-539): 7.36%; inhibition at 10 µM (SK-MEL-28): 0%; inhibition at 10 µM (SK-MEL-2): 0%; inhibition at 10 µM (SR): 30.6%; inhibition at 10 µM (SW-620): 0%; inhibition at 10 µM (TK-10): 0%; inhibition at 10 µM (UO-31): 12.4%
